Experimental findings from patent US5504190A, “Equimolar multiple oligomer mixtures, especially oligopeptide mixtures” (priority 1994, dated 1996) are described below.

Values after ≈ are worked out from the molar mass of the structure shown. Like-named read-outs stand apart in the source and are kept apart here.

Broadly, the IC50 is the midpoint of a concentration-inhibition curve. A high value points to lower potency.

The test system of data set [1] is Candida albicans ATCC 10231. Kind of data set: antifungal assay, growth inhibition of C. albicans (OD 620 nm). It counts as cell-based. Here is the method: Antifungal studies were carried out Candida albicans ATCC 10231 as the target microbe. The yeast culture was spread onto YM agar plates and incubated at 30° C. for 48 hours. Three colonies of this culture (about 1 mm in diameter each) were then inoculated in 5 ml of 1 X PBS solution. The suspension was vortexed and diluted 10-fold in YM broth, for an approximate final concentration of 10^5 to 5×10^5 CFU (colony forming units)/ml.
Actual concentrations of yeast cultures were determined by plating 100 μl of different solutions of the culture solution (10^-3, 10^-4 and 10^-5) onto solid YM agar plates. After 48 hours of incubation at 30° C., CFU formed were counted from each plate.
The assays were carried out in 96-well tissue culture plates. Eight wells containing only medium of YM broth served as negative controls, whereas eight wells containing medium and yeast culture served as positive controls. These controls were used to detect possible medium contamination and to provide a measure of uninhibited growth of the yeast.
For screening studies, oligopeptide mixtures were added to the yeast suspension in duplicates to reach a final concentration of 1.5 mg/ml. […] The plates were incubated over a period of 48 hours at 30° C., and the optical density (OD) at 24 and 48 hours was determined at 620 nm.

Data set [2] has as its system Staphylococcus aureus (ATCC 29213). Put plainly: microbe, parasite or virus in culture. Here is the method:
(§1) Escherichia coli (ATCC 25922) was used as Gram-negative (-) and Staphylococcus aureus (ATCC 29213) as Gram-positive (+) bacteria. Bacteria were grown overnight (about 18 hours) at 37° C. in Mueller-Hinton (MH) broth. This culture was reinoculated and incubated at 37° C. to reach the exponential phase of bacteria growth; i.e., a final bacterial suspension containing about 10^5 to 5×10^5 colony-forming units (CFU)/ml. The concentration of cells was established by plating 100 μl of different dilutions of the culture solution (e.g., 10^-2, 10^-3 and 10^-4) onto solid agar plates. Following an overnight (about 18 hours) incubation at 37° C., the CFU thus formed were counted on each agar plate.
(§2) 96-Well tissue culture plates were utilized, with eight wells per plate containing only medium as control blanks, whereas eight other wells contained medium plus cells as a positive growth control. These controls were used to detect possible medium contamination and to provide a measure of uninhibited growth of the microorganisms.
(§3) For initial screening studies, oligopeptide sets were added to the bacterial suspension to reach a final concentration of 1 mg/ml.
(§4) The plates were incubated overnight (about 18 hours) at 37° C., and the optical density (OD) determined at 620 nm after different times of incubation.

Data set [3] relates to human red blood cells. Format: cell-based. Here is the method: Assays were carried out in 96-well culture tissue plates. Four wells per plate contained 125 μl of a non-peptide positive control of the surfactant Triton X-100 (poly)oxyethanol (9) octyl phenyl ether; 1 percent in deionized water!, and four wells per plate contained 115 μl of a control blank of phosphate-buffered saline (PBS). The hemolytic peptide melittin was used as comparative control. The controls served to detect possible contamination and to calculate the percent hemolysis of each peptide.
Human red blood cells (RBC's) were washed with PBS and centrifuged to separate them from the serum. The cells are then resuspended in PBS to a final suspension of 0.5 percent RBC. This suspension (125 μl) was added to the peptide mixture and control solutions. The plates were incubated at 37° C. for one hour and centrifuged at 2800 rpm for five minutes. The release of hemoglobin resulting from the cell lysis was determined by measuring the OD at 414 nm of 100 μl of the supernatant.

Data set [4] relates to Escherichia coli (ATCC 25922). Kind of data set: antimicrobial assay, growth inhibition of E. coli (OD 620 nm). Format: cell-based. As to conditions: Tables 1 and 2. Here is the method: as §1, §2, §3, §4
Where [5] appears, read: 7-mer studies, Tables 5 and 6 and parent 6-mer.

In data set [1] (Candida albicans, ATCC10231, Table 9), `C[C@@H]1[C@H](O)[C@@H](C)/C=C/C=C/C=C/C=C/C=C/C=C/C=C/[C@H](O[C@@H]2O[C@H](C)[C@@H](O)[C@H](N)[C@@H]2O)C[C@@H]2O[C@](O)(C[C@@H](O)C[C@@H](O)[C@H](O)CC[C@@H](O)C[C@@H](O)CC(=O)O[C@H]1C)C[C@H](O)[C@H]2C(=O)O` [Amphotericin B, reference compound] gave a half-maximal inhibitory concentration (IC50) of 0.5 µg/mL (≈ 0.541 µM). The MIC in data set [1] (Candida albicans, ATCC10231, Table 9, read-out: MIC) is 2 to 4 µg/mL (≈ 2.16 to 4.33 µM).

`C[C@@H]1[C@H](O)[C@@H](C)/C=C/C=C/CC/C=C/C=C/C=C/C=C/[C@H](O[C@@H]2O[C@H](C)[C@@H](O)[C@H](N)[C@@H]2O)C[C@@H]2O[C@](O)(C[C@@H](O)[C@H](O)CC[C@@H](O)C[C@@H](O)C[C@@H](O)CC(=O)O[C@H]1C)C[C@H](O)[C@H]2C(=O)O` [Nystatin, reference compound] gave an MIC in data set [1] (Candida albicans, ATCC10231) of 2 to 4 µg/mL (≈ 2.16 to 4.32 µM).

Turning to Ac-FRWLLF-NH2 [FRWLLF], in data set [2] (Tables 3 and 4), the IC-50 worked out at 11 µg/mL and the MIC lay in the range of 9 to 18 µg/mL. For the same molecule, in data set [3], the HD-50 came out at 34 µg/mL.

In data set [4], Ac-FRWLLH-NH2 [FRWLLH] gave an IC-50 of 17 µg/mL and an MIC of 20 to 40 µg/mL.

With Ac-FRWLLK-NH2 [FRWLLK], in data set [4], the IC-50 was 5 µg/mL and the MIC is 5 to 10 µg/mL. The molecule also had an HD-50 in data set [3] of 356 µg/mL.

Consider Ac-FRWLLR-NH2 [FRWLLR], for which the IC-50 was found to be 13 µg/mL in data set [2] (Tables 3 and 4); 4 µg/mL in data set [4]. The MIC in data set [2] (Tables 3 and 4) lay within 24 to 48 µg/mL; in data set [4], 5 to 10 µg/mL. In addition, the HD-50 in data set [3] worked out at 171 µg/mL.

Consider Ac-FRWLLV-NH2 [FRWLLV], for which, in data set [4], the IC-50 was determined as 24 µg/mL and the MIC is 40 to 80 µg/mL.

With Ac-FRWWHF-NH2 [FRWWHF], in data set [2] (Tables 3 and 4), the IC-50 came out at 16 µg/mL and the MIC is 31 to 62 µg/mL. In data set [4], the IC-50 is 30 µg/mL and the MIC is 31 to 62 µg/mL.

Consider Ac-FRWWHH-NH2 [FRWWHH], for which, in data set [4], the IC-50 stood at 31 µg/mL and the MIC was 34 to 62 µg/mL.

For Ac-FRWWHK-NH2 [FRWWHK], the IC-50 in data set [2] (Tables 3 and 4) stood at 30 µg/mL; in data set [4], 15 µg/mL. Besides, the MIC in data set [2] (Tables 3 and 4) was 31 to 62 µg/mL; in data set [4], 16 to 32 µg/mL.

In the case of Ac-FRWWHL-NH2 [FRWWHL], the IC-50 in data set [2] (Tables 3 and 4) was found to be 9.3 µg/mL; in data set [4], 31 µg/mL. The MIC in data set [2] (Tables 3 and 4) is 16 to 32 µg/mL; in data set [4] it was 62 to 125 µg/mL.

In data set [2] (Tables 3 and 4), Ac-FRWWHR-NH2 [FRWWHR] returned an IC-50 of 18 µg/mL and an MIC of 16 to 32 µg/mL. For the same molecule, in data set [4], the IC-50 came out at 13 µg/mL and the MIC was in the range of 16 to 32 µg/mL.

In data set [2] (Tables 3 and 4), Ac-FRWWHW-NH2 [FRWWHW] showed an IC-50 of 23 µg/mL and an MIC of 31 to 62 µg/mL. Besides, in data set [4], the IC-50 was 27 µg/mL and the MIC was in the range of 62 to 125 µg/mL.

For the molecule Ac-IRRWWRF-NH2 [IRRWWRF], in data set [2] (setting [5]), the IC-50 was found to be 4.7 µg/mL and the MIC was in the range of 4 to 8 µg/mL. This molecule also showed an HD-50 in data set [3] of 142 µg/mL.

In data set [1] (Table 9), Ac-KRRWWRF-NH2 [KRRWWRF] yielded an IC-50 of 40 µg/mL and an MIC of 45 to 62 µg/mL.

As for Ac-RRWWCH-NH2 [RRWWCH], in data set [2] (Tables 3 and 4), the IC-50 turned out to be 6.2 µg/mL and the MIC is 5.5 to 11 µg/mL. In addition, in data set [3], the HD-50 was 128 µg/mL.

Regarding Ac-RRWWCVR-NH2 [RRWWCVR], in data set [1] (Table 9), the IC-50 was 50 µg/mL and the MIC fell in the range of 50 to 62 µg/mL.

In data set [2] (Tables 3 and 4), Ac-RRWWCW-NH2 [RRWWCW] returned an IC-50 of 4.1 µg/mL and an MIC of 4.5 to 9.0 µg/mL. The same molecule registered an HD-50 in data set [3] of 11 µg/mL.

In data set [2] (Tables 3 and 4), Ac-RRWWCY-NH2 [RRWWCY] showed an IC-50 of 5.4 µg/mL and an MIC of 4.7 to 9.5 µg/mL. The same molecule registered an HD-50 in data set [3] of 50 µg/mL.

In data set [4], Ac-RRWWMA-NH2 [RRWWMA] came in with an IC-50 of 18 µg/mL and an MIC of 20 to 32 µg/mL.

In data set [4], Ac-RRWWMC-NH2 [RRWWMC] registered an IC-50 of 12 µg/mL and an MIC of 31 to 62 µg/mL.

In data set [4], Ac-RRWWMF-NH2 [RRWWMF] had an IC-50 of 18 µg/mL and an MIC of 20 to 32 µg/mL.

As for Ac-RRWWMG-NH2 [RRWWMG], in data set [4], the IC-50 was found to be 9 µg/mL and the MIC is 10 to 16 µg/mL.

Turning to Ac-RRWWMH-NH2 [RRWWMH], in data set [4], the IC-50 came to 24 µg/mL and the MIC fell in the range of 31 to 62 µg/mL.

Ac-RRWWMI-NH2 [RRWWMI]: in data set [4], the IC-50 stood at 12 µg/mL and the MIC lay in the range of 16 to 32 µg/mL.

Turning to Ac-RRWWMK-NH2 [RRWWMK], in data set [4], the IC-50 was found to be 14 µg/mL and the MIC is 16 to 32 µg/mL.

In data set [4], Ac-RRWWML-NH2 [RRWWML] displayed an IC-50 of 15 µg/mL and an MIC of 16 to 32 µg/mL.

On to Ac-RRWWMM-NH2 [RRWWMM], for which, in data set [4], the IC-50 is 18 µg/mL and the MIC is 20 to 32 µg/mL.

As to Ac-RRWWMN-NH2 [RRWWMN], in data set [4], the IC-50 was found to be 25 µg/mL and the MIC lay within 31 to 62 µg/mL.

In data set [4], Ac-RRWWMP-NH2 [RRWWMP] returned an IC-50 of 26 µg/mL and an MIC of 31 to 62 µg/mL.

With Ac-RRWWMR-NH2 [RRWWMR], in data set [4], the IC-50 amounted to 9 µg/mL and the MIC was in the range of 10 to 16 µg/mL.

On to Ac-RRWWMS-NH2 [RRWWMS], for which, in data set [4], the IC-50 was found to be 17 µg/mL and the MIC lay in the range of 20 to 32 µg/mL.

In the case of Ac-RRWWMT-NH2 [RRWWMT], in data set [4], the IC-50 was found to be 18 µg/mL and the MIC was 20 to 32 µg/mL.

Regarding Ac-RRWWMV-NH2 [RRWWMV], in data set [4], the IC-50 amounted to 15 µg/mL and the MIC lay within 16 to 32 µg/mL.

As for Ac-RRWWMW-NH2 [RRWWMW], in data set [4], the IC-50 stood at 15 µg/mL and the MIC fell in the range of 16 to 32 µg/mL.

With Ac-RRWWMY-NH2 [RRWWMY], in data set [4], the IC-50 was 15 µg/mL and the MIC is 16 to 32 µg/mL.

With Ac-RRWWRFF-NH2 [RRWWRFF], in data set [2] (setting [5]), the IC-50 is 4.7 µg/mL and the MIC was in the range of 4 to 8 µg/mL. For the same molecule, the HD-50 in data set [3] is 106 µg/mL.

In data set [1] (Table 9), Ac-RRWWRFK-NH2 [RRWWRFK] yielded an IC-50 of 46 µg/mL and an MIC of 50 to 62 µg/mL.

In the case of Ac-RRWWRFR-NH2 [RRWWRFR], in data set [2] (setting [5]), the IC-50 turned out to be 7.9 µg/mL and the MIC fell in the range of 8 to 16 µg/mL. In data set [1] (Table 9), this molecule yielded an IC-50 of 45 µg/mL and an MIC of 50 to 62 µg/mL.

Regarding Ac-RRWWRFW-NH2 [RRWWRFW], in data set [2] (setting [5]), the IC-50 came out at 2.5 µg/mL and the MIC fell in the range of 4 to 8 µg/mL. This molecule had an HD-50 in data set [3] of 59 µg/mL.

As to Ac-RRWWRH-NH2 [RRWWRH], in data set [1] (Table 9), the IC-50 was 30.1 µg/mL and the MIC is 40 to 80 µg/mL.

Take Ac-WRRWWRF-NH2 [WRRWWRF]: in data set [2] (setting [5]), the IC-50 was found to be 5.4 µg/mL and the MIC fell in the range of 4 to 8 µg/mL. Besides, in data set [3], the HD-50 was found to be 158 µg/mL.

As for Ac-YRRWWRF-NH2 [YRRWWRF], in data set [2] (setting [5]), the IC-50 turned out to be 4.5 µg/mL and the MIC is 4 to 8 µg/mL. In addition, the HD-50 in data set [3] was found to be 219 µg/mL.
